This note sets out measurements from patent publication US5677297A, “Benzazepine-, benzoxazepine- and benzothiazepine-n-acetic acid derivatives, process for their preparation and pharmaceutical compositions containing them” (Solvay Pharmaceuticals GmbH, priority 1995, dated 1997).

pIC50: −log10 of the molar value.

This assay deals with T1, endothelin-converting enzyme (ECE) (Homo sapiens, UniProt P42892).
T1 construct: expressed in transfected cells; host or cells: CHO cells (Chinese hamster ovary), membrane fraction
T1 sequence (P42892 1-770): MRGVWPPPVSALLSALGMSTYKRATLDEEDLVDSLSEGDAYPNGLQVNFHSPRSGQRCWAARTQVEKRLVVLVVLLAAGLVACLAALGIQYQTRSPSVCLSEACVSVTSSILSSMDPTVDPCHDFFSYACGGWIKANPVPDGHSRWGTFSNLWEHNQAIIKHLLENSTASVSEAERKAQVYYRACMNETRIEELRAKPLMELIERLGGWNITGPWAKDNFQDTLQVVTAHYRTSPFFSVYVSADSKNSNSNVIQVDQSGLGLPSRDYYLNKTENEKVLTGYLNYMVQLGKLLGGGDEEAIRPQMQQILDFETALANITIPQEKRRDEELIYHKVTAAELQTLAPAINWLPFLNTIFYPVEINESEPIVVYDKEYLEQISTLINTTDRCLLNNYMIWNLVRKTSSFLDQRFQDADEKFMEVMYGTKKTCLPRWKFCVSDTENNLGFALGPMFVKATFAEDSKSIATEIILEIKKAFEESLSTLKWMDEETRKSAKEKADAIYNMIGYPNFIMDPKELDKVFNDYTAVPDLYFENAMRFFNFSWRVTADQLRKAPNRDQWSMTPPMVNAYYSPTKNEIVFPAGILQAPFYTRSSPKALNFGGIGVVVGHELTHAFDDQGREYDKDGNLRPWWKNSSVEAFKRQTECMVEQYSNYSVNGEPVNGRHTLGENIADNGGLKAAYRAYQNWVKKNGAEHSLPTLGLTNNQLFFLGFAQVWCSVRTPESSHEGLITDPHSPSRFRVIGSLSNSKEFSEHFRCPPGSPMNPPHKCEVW
Briefly: In vitro investigation of the ECE-inhibitory effect (recombinant human ECE in CHO cell membrane fraction). Format: biochemical. The conditions noted are these: 24 μM synthetic peptide substrate, pH 7.0, 37° C., 60 min. As to the method: 3. In vitro investigations of the ECE-inhibitory effect of the substances.
The IC50 of the substances was determined as a measure of their inhibitory activity. The IC50 of a test substance with enzyme-inhibiting activity is the concentration of the test substance at which 50% of the enzymatic activity of ECE is inhibited.
Preparation of the ECE-containing endothelial cell membrane fraction.
Egg cells from the Chinese hamster (Chinese hamster ovary cells, hereinafter CHO cells) in which there was recombinant expression of human ECE [see Schmidt et al., Federation of European Biochemical Societies Letters 356 238-43 (1994)] were lysed, and the cell membranes were removed by centrifugation at 10,000×g for 10 min. The cell membranes were washed by resuspension and repeated centrifugation three times. The ECE-containing cell membrane fraction was resuspended in 100 mM tris/HCl buffer (tris(hydroxymethyl)aminomethane/HCl, pH 7.0, containing 250 mM NaCl) and stored frozen at -70° C. before the enzyme test.
To carry out the test, respective 100 μl samples of various incubation solutions each containing 5 μg protein from an ECE-containing preparation of endothelial cell membranes and different amounts of test substance and 24 μM substrate (synthetic peptide: H2 N-Asp-Ile-Ala-Trp-Phe-Asn-Thr-Pro-Glu-His-Val-Val-Pro-Tyr-Gly-Leu-Gly-COOH) (SEQ ID NO:1) and 100 mM tris buffer (tris(hydroxymethyl)aminomethane/HCl, pH 7.0, containing 250 mM sodium chloride) were prepared. […]
The incubation solutions were preincubated at 37° C. for 15 min before the substrate was added. […] The hydrolysis products H2N-Asp-Ile-Ala-Trp-COOH (SEQ ID NO:2) and H2 N-Phe-Asn-Thr-Pro-Glu-His-Val-Val-Pro-Tyr-Gly-Leu-Gly-COOH (SEQ ID NO:3) formed from the substrate by the enzymatic reaction were determined with the aid of high-pressure liquid chromatography (HPLC). […] The IC50 was calculated for each test substance in a known manner from the concentrations of hydrolysis products measured in the various samples.

`O=C(O)CN1C(=O)[C@@H](NC(=O)C2(C[C@@H](CCc3ccccc3)C(=O)O)CCCC2)CCc2ccccc21` [Example 8, (3S,2'R)-3-[1-(2'-Carboxy-4'-phenylbutyl)cyclopentane-1-carbonylamino]-2,3,4,5-tetrahydro-2-oxo-1H-1-benzazepine-1-acetic acid]: the pIC50 is 5.89.

A word on the pIC50: it is the negative decadic logarithm of the IC50, by convention in mol/L.
